Source: paper PMC11775380, “Discovery of Novel Nav1.7-Selective Inhibitors with the 1H-Indole-3-Propionamide Scaffold for Effective Pain Relief” (Research, 2025)

Molecular target: T1, human Nav1.7 (hNav1.7) (Homo sapiens, UniProt Q15858)
T1 construct: expressed in transfected cells; host or cells: HEK293T
Experiment: Whole-cell patch-clamp inhibition of Nav1.7 currents in transfected HEK293T cells
Assay type: cell-based
Details: for inhibition at 10 µM: HEK-293T, 10 μM compound, inhibition rate of Nav1.7, read-out: Inhibitory activity (10 μM); for IC50: −80 mV holding, step to V1/2 of inactivation for 8 s, HEK293T
Method: Human embryonic kidney (HEK) 293T (ATCC CRL-3216) and ND7/23 cells (National Collection of Authenticated Cell Cultures SCSP-5026) were cultured under standard conditions (5% CO2, 37 °C) in Dulbecco’s modified Eagle’s medium (DMEM) containing 10% fetal bovine serum and 1% penicillin-streptomycin solution(all from Gibco, Thermo Fisher Scientific, Waltham, MA, USA). When the cells reached 70% to 90% confluence, human Nav1.2 (hNav1.2), human Nav1.3 (hNav1.3), human Nav1.4 (hNav1.4), human Nav1.5 (hNav1.5), and mouse Nav1.6 (mNav1.6) channel plasmids were cotransfected with enhanced green fluorescent protein (eGFP) into HEK293T cells. Additionally, plasmids expressing β1 and β2 subunits tagged with eGFP were cotransfected with the human Nav1.7 (hNav1.7) channel into HEK293T cells. Human Nav1.8 (hNav1.8) was transiently transfected into ND7/23 cells, along with eGFP, using Lipofectamine 2000 (Invitrogen), adhering strictly to the manufacturer’s protocol. For manual patch-clamp experiments, the cells were plated onto glass coverslips and used within 20 to 48 h of transfection.
Whole-cell patch-clamp recordings were conducted at 25 ± 2 °C, utilizing an EPC 10USB patch-clamp amplifier (HEKA Elektronik, Lambrecht, Germany). Pipettes, with access resistance between 2.0 and 3.0 MΩ, were pulled from borosilicate glass capillary tubes using a 2-step vertical microelectrode puller (PC-10, Narishige Group, Tokyo, Japan). Voltage-clamp recordings were obtained with PatchMaster software v2 × 73 (HEKA Elektronik) 5 min after establishing whole-cell configuration, sampled at 20 kHz, and filtered at 5 kHz. To minimize voltage errors, 80% series resistance compensation was applied. Pipettes were filled with 140 mM CsF, 10 mM NaCl, 1 mM EGTA, and 10 mM HEPES (pH=7.4, adjusted with CsOH). The external solution contained 140 mM NaCl, 2 mM CaCl2, 1 mM MgCl2, 5 mM KCl, 10 mM HEPES, and 10 mM glucose (pH=7.4, adjusted with NaOH). IC50 values were determined in HEK293T or ND7/23 cell lines by voltage clamping at −80 mV, followed by stepping to the V1/2 of inactivation for 8 s to facilitate compound binding.

T1 sequence (Q15858 whole entry): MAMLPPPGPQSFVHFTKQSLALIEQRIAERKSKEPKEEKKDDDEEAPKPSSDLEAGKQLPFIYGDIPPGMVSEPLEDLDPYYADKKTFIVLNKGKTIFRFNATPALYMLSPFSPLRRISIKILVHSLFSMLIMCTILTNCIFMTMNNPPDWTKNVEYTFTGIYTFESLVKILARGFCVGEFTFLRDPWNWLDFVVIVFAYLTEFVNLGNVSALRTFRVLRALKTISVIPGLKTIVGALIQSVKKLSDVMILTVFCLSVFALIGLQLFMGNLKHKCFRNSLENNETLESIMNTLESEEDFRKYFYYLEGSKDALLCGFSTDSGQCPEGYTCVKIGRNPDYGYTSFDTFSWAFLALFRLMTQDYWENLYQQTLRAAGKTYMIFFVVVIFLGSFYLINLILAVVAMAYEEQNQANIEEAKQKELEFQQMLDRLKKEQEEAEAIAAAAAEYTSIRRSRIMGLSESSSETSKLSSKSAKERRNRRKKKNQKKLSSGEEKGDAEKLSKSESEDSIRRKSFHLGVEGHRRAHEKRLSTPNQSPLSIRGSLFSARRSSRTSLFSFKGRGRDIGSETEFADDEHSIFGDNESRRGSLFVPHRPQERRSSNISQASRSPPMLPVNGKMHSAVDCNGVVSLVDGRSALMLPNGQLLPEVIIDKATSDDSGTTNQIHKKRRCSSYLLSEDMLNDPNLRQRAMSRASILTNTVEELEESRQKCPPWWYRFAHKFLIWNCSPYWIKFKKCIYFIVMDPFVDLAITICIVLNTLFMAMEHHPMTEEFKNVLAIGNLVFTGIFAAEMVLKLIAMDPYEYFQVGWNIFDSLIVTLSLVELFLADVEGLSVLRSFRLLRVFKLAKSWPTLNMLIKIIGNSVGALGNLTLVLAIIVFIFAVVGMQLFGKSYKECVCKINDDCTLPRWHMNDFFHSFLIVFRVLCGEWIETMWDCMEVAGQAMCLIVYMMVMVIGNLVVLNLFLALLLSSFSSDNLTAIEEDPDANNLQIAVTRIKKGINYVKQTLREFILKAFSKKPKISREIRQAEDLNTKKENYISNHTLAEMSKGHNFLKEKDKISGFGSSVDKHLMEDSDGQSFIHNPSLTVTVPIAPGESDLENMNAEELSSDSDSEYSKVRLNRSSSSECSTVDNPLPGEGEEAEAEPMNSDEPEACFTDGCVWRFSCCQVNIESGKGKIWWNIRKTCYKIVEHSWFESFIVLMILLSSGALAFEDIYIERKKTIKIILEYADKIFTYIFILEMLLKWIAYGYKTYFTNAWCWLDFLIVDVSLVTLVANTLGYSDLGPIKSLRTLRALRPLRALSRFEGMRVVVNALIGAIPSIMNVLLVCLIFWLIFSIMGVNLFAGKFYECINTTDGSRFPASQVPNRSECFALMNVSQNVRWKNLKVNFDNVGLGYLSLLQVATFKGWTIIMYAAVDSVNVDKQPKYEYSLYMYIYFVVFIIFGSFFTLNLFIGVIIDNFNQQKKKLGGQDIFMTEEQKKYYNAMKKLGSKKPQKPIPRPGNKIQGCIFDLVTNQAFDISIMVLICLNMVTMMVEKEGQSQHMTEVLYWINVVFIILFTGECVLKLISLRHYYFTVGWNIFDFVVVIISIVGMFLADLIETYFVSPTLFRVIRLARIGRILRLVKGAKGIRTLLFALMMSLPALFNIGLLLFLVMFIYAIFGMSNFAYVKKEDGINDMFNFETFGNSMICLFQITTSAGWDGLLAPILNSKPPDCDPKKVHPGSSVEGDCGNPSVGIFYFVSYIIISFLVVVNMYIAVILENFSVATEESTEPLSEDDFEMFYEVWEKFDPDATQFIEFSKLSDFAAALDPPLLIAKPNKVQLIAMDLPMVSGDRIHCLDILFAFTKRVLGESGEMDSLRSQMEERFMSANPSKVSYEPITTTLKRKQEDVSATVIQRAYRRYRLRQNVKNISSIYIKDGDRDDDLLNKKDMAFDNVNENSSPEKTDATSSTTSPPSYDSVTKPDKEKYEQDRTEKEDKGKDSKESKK
T1 sequence (Q07699 19-218 partner): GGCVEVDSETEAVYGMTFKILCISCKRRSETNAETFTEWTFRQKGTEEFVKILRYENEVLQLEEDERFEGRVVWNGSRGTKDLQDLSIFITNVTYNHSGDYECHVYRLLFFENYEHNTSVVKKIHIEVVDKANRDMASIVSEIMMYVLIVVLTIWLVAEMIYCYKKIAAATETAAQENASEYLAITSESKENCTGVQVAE
T1 sequence (O60939 30-215 partner): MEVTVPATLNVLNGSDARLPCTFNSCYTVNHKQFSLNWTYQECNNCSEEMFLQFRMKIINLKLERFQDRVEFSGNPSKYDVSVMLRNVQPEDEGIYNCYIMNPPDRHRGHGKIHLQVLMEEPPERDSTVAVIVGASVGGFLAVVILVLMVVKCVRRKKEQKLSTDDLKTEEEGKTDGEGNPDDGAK

SMILES | inhibition at 10 µM | IC50
NC(=O)CC(c1ccc(C(F)(F)F)cc1)c1cn(Cc2ccc(F)cc2)c2ccccc12 (stereo not shown) [B4, C1=CC=C2C(=C1)C(=CN2CC3=CC=C(C=C3)F)C(CC(=O)N)C4=CC=C(C=C4)C(F)(F)F] | 13.4% | 
O=C(CC(c1cccc(Cl)c1)c1cn(Cc2ccc(F)cc2)c2ccccc12)NCC1COc2ccccc2O1 (stereo not shown) [A7, FC(C=C1)=CC=C1CN2C=C(C(CC(NCC3COC(C=CC=C4)=C4O3)=O)C5=CC(Cl)=CC=C5)C6=CC=CC=C62] | 58% | 
O=C(CC(c1ccc(C(F)(F)F)cc1)c1cn(Cc2ccccc2)c2ccccc12)NCCN1CCCC1 (stereo not shown) [B11, C1CCN(C1)CCNC(=O)CC(C2=CC=C(C=C2)C(F)(F)F)C3=CN(C4=CC=CC=C43)CC5=CC=CC=C5] | 7.97% | 
Cc1ccc(Cn2cc([C@@H](CC(=O)NCCN(C)C)c3ccc(F)cc3)c3ccccc32)cc1 [WN2-S] |  | 113 ± 36.9 nM
O=C(CC(c1ccc(C(F)(F)F)cc1)c1cn(Cc2ccccc2)c2ccccc12)NCc1ccncc1 (stereo not shown) [B36, C1=CC=C(C=C1)CN2C=C(C3=CC=CC=C32)C(CC(=O)NCC4=CC=NC=C4)C5=CC=C(C=C5)C(F)(F)F] | 17.2% | 
O=C(CC(c1ccc(C(F)(F)F)cc1)c1cn(Cc2ccc(F)cc2)c2ccccc12)NCCN1CCOCC1 (stereo not shown) [B24, C1COCCN1CCNC(=O)CC(C2=CC=C(C=C2)C(F)(F)F)C3=CN(C4=CC=CC=C43)CC5=CC=C(C=C5)F] | 16% | 
O=C(CC(c1ccc(F)cc1)c1cn(Cc2ccccc2)c2ccccc12)NCCc1ccc(Cl)cc1Cl (stereo not shown) [B1, C1=CC=C(C=C1)CN2C=C(C3=CC=CC=C32)C(CC(=O)NCCC4=C(C=C(C=C4)Cl)Cl)C5=CC=C(C=C5)F] | 6.13% | 
COCCNC(=O)CC(c1ccc(OCc2ccccc2)c(OC)c1)c1cn(Cc2ccc(F)cc2)c2ccccc12 (stereo not shown) [A5, COCCNC(=O)CC(C1=CC(=C(C=C1)OCC2=CC=CC=C2)OC)C3=CN(C4=CC=CC=C43)CC5=CC=C(C=C5)F] | 3.57% | 
Cc1ccc(Cn2cc(C(CC(=O)NCCc3ccccn3)c3ccc(F)cc3)c3ccccc32)cc1 (stereo not shown) [B18, CC1=CC=C(C=C1)CN2C=C(C3=CC=CC=C32)C(CC(=O)NCCC4=CC=CC=N4)C5=CC=C(C=C5)F] | 13.7% | 
COc1ccc(Cn2cc(C(CC(=O)NCCc3ccccn3)c3cc(C)ccc3F)c3ccccc32)cc1 (stereo not shown) [B12, CC1=CC(=C(C=C1)F)C(CC(=O)NCCC2=CC=CC=N2)C3=CN(C4=CC=CC=C43)CC5=CC=C(C=C5)OC] | 4.98% | 
COc1ccc(N2CC(C(=O)NC3CCCc4c3[nH]c3ccccc43)CC2=O)c(OC)c1 (stereo not shown) [A8, COC1=CC(=C(C=C1)N2CC(CC2=O)C(=O)NC3CCCC4=C3NC5=CC=CC=C45)OC] | 12.1% | 
O=C(CC(c1ccc(C(F)(F)F)cc1)c1cn(Cc2ccc(F)cc2)c2ccccc12)NCCc1ccccn1 (stereo not shown) [WN1, C1=CC=C2C(=C1)C(=CN2CC3=CC=C(C=C3)F)C(CC(=O)NCCC4=CC=CC=N4)C5=CC=C(C=C5)C(F)(F)F] | 73.2% | 3960 ± 140 nM
O=C(CC(c1ccc(F)cc1)c1cn(Cc2ccccc2)c2ccccc12)NCc1ccccn1 (stereo not shown) [B2, C1=CC=C(C=C1)CN2C=C(C3=CC=CC=C32)C(CC(=O)NCC4=CC=CC=N4)C5=CC=C(C=C5)F] | 11.5% | 
O=C(CC(c1ccc(C(F)(F)F)cc1)c1cn(Cc2ccc(F)cc2)c2ccccc12)N1CCCC1 (stereo not shown) [B25, C1CCN(C1)C(=O)CC(C2=CC=C(C=C2)C(F)(F)F)C3=CN(C4=CC=CC=C43)CC5=CC=C(C=C5)F] | 23.1% | 
CC(C)CNC(=O)CC(c1ccc(C(F)(F)F)cc1)c1cn(Cc2ccccc2)c2ccccc12 (stereo not shown) [B34, CC(C)CNC(=O)CC(C1=CC=C(C=C1)C(F)(F)F)C2=CN(C3=CC=CC=C32)CC4=CC=CC=C4] | 13.4% | 
COc1ccc(C(CC(=O)NCCc2ccccn2)c2cn(Cc3ccc(F)cc3)c3ccccc23)cc1OC (stereo not shown) [B17, COC1=C(C=C(C=C1)C(CC(=O)NCCC2=CC=CC=N2)C3=CN(C4=CC=CC=C43)CC5=CC=C(C=C5)F)OC] | 34.9% | 
O=C(CC(c1cccc(Cl)c1)c1cn(Cc2ccc(F)cc2)c2ccccc12)NCCc1ccccn1 (stereo not shown) [B27, C1=CC=C2C(=C1)C(=CN2CC3=CC=C(C=C3)F)C(CC(=O)NCCC4=CC=CC=N4)C5=CC(=CC=C5)Cl] | 16% | 
O=C1OC(Nc2ccc(S(=O)(=O)Nc3ccccn3)cc2)c2ccccc21 (stereo not shown) [A10, C1=CC=C2C(=C1)C(OC2=O)NC3=CC=C(C=C3)S(=O)(=O)NC4=CC=CC=N4] | 2.74% | 
